PubChem BioAssay (NCI)
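Step 1: Grow cells in 96-well plates. Step 2: Expose to compound for 48 hours at 5 concentrations. Step 3: Interpolate endpoints linearly; if unreached, use highest concentration. TGI: concentration producing complete growth inhibition.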

Tests used:
Assay in all cases: NCI-60 cell line screen, 48 h
786-0 renal = test system: 786-0 renal
A498 renal = test system: A498 renal
A549 NSCLC = test system: A549 NSCLC
ACHN renal = test system: ACHN renal
BT-549 breast = test system: BT-549 breast
CAKI-1 renal = test system: CAKI-1 renal
CCRF-CEM leukemia = test system: CCRF-CEM leukemia
COLO 205 colon = test system: COLO 205 colon
DU-145 prostate = test system: DU-145 prostate
EKVX NSCLC = test system: EKVX NSCLC
HCC-2998 colon = test system: HCC-2998 colon
HCT-116 colon = test system: HCT-116 colon
HCT-15 colon = test system: HCT-15 colon
HL-60(TB) leukemia = test system: HL-60(TB) leukemia
HOP-62 NSCLC = test system: HOP-62 NSCLC
HOP-92 NSCLC = test system: HOP-92 NSCLC
HS 578T breast = test system: HS 578T breast
HT29 colon = test system: HT29 colon
IGROV1 ovarian = test system: IGROV1 ovarian
K-562 leukemia = test system: K-562 leukemia
KM12 colon = test system: KM12 colon
LOX IMVI melanoma = test system: LOX IMVI melanoma
M14 melanoma = test system: M14 melanoma
MALME-3M melanoma = test system: MALME-3M melanoma
MCF7 breast = test system: MCF7 breast
MDA-MB-231 breast = test system: MDA-MB-231 breast
MDA-MB-435 = test system: MDA-MB-435
MDA-N = test system: MDA-N
MOLT-4 leukemia = test system: MOLT-4 leukemia
NCI-H226 lung = test system: NCI-H226 lung
NCI-H23 lung = test system: NCI-H23 lung
NCI-H460 lung = test system: NCI-H460 lung
NCI-H522 lung = test system: NCI-H522 lung
NCI/ADR-RES ovarian = test system: NCI/ADR-RES ovarian
OVCAR-3 ovarian = test system: OVCAR-3 ovarian
OVCAR-4 ovarian = test system: OVCAR-4 ovarian
OVCAR-5 ovarian = test system: OVCAR-5 ovarian
OVCAR-8 ovarian = test system: OVCAR-8 ovarian
PC-3 prostate = test system: PC-3 prostate
RPMI-8226 leukemia = test system: RPMI-8226 leukemia
RXF 393 renal = test system: RXF 393 renal
SF-268 CNS = test system: SF-268 CNS
SF-295 CNS = test system: SF-295 CNS
SF-539 CNS = test system: SF-539 CNS
SK-MEL-2 melanoma = test system: SK-MEL-2 melanoma
SK-MEL-28 melanoma = test system: SK-MEL-28 melanoma
SK-MEL-5 melanoma = test system: SK-MEL-5 melanoma
SK-OV-3 ovarian = test system: SK-OV-3 ovarian
SN12C renal = test system: SN12C renal
SNB-19 CNS = test system: SNB-19 CNS
SNB-75 CNS = test system: SNB-75 CNS
SR leukemia = test system: SR leukemia
SW-620 colon = test system: SW-620 colon
T-47D breast = test system: T-47D breast
TK-10 renal = test system: TK-10 renal
U251 CNS = test system: U251 CNS
UACC-257 melanoma = test system: UACC-257 melanoma
UACC-62 melanoma = test system: UACC-62 melanoma
UO-31 renal = test system: UO-31 renal
DLD-1 colon = test system: DLD-1 colon
DMS 114 small cell lung = test system: DMS 114 small cell lung
KM20L2 colon = test system: KM20L2 colon
LXFL 529 NSCLC = test system: LXFL 529 NSCLC
M19-MEL melanoma = test system: M19-MEL melanoma
SNB-78 CNS = test system: SNB-78 CNS
XF 498 CNS = test system: XF 498 CNS

COC(=O)/C=C(/C(=O)OC)c1c(C)cc2c(C)cc(C)cc(C)c1-2
TGI (786-0 renal): 41.1 µM
TGI (A498 renal): 70.3 µM
TGI (A549 NSCLC): > 84.5 µM
TGI (ACHN renal): > 100 µM
TGI (BT-549 breast): 47.1 µM
TGI (CAKI-1 renal): > 100 µM
TGI (CCRF-CEM leukemia): > 100 µM
TGI (COLO 205 colon): 22.4 µM
TGI (DU-145 prostate): > 91.8 µM
TGI (EKVX NSCLC): > 95.3 µM
TGI (HCC-2998 colon): > 100 µM
TGI (HCT-116 colon): 18.5 µM
TGI (HCT-15 colon): 18.8 µM
TGI (HL-60(TB) leukemia): > 100 µM
TGI (HOP-62 NSCLC): 37.9 µM
TGI (HOP-92 NSCLC): > 100 µM
TGI (HS 578T breast): 51.1 µM
TGI (HT29 colon): 28.3 µM
TGI (IGROV1 ovarian): > 100 µM
TGI (K-562 leukemia): > 100 µM
TGI (KM12 colon): > 58.2 µM
TGI (LOX IMVI melanoma): > 57.8 µM
TGI (M14 melanoma): 35.1 µM
TGI (MALME-3M melanoma): > 65.5 µM
TGI (MCF7 breast): 36.6 µM
TGI (MDA-MB-231 breast): 15.3 µM
TGI (MDA-MB-435): > 30.5 µM
TGI (MDA-N): 5.16 µM
TGI (MOLT-4 leukemia): > 100 µM
TGI (NCI-H226 lung): 61.6 µM
TGI (NCI-H23 lung): > 81.1 µM
TGI (NCI-H460 lung): > 69.9 µM
TGI (NCI-H522 lung): 28.4 µM
TGI (NCI/ADR-RES ovarian): > 64.6 µM
TGI (OVCAR-3 ovarian): 38.3 µM
TGI (OVCAR-4 ovarian): > 100 µM
TGI (OVCAR-5 ovarian): > 78.8 µM
TGI (OVCAR-8 ovarian): > 86.6 µM
TGI (PC-3 prostate): 98.6 µM
TGI (RPMI-8226 leukemia): > 100 µM
TGI (RXF 393 renal): 49.2 µM
TGI (SF-268 CNS): > 65.7 µM
TGI (SF-295 CNS): 29.3 µM
TGI (SF-539 CNS): 26.7 µM
TGI (SK-MEL-2 melanoma): > 77.1 µM
TGI (SK-MEL-28 melanoma): > 100 µM
TGI (SK-MEL-5 melanoma): 23.5 µM
TGI (SK-OV-3 ovarian): 99.5 µM
TGI (SN12C renal): 40.2 µM
TGI (SNB-19 CNS): > 100 µM
TGI (SNB-75 CNS): > 72.2 µM
TGI (SR leukemia): > 100 µM
TGI (SW-620 colon): > 100 µM
TGI (T-47D breast): > 100 µM
TGI (TK-10 renal): > 83.3 µM
TGI (U251 CNS): 25.5 µM
TGI (UACC-257 melanoma): > 77.5 µM
TGI (UACC-62 melanoma): > 66.5 µM
TGI (UO-31 renal): 98.2 µM

CCOc1ccccc1NC(=O)C1=C(C)NC(C)=C(C(=O)Nc2ccccc2OCC)C1c1ccc(NC(C)=O)cc1
TGI (786-0 renal): > 100 µM
TGI (A498 renal): 88.9 µM
TGI (A549 NSCLC): > 100 µM
TGI (ACHN renal): > 100 µM
TGI (CAKI-1 renal): > 100 µM
TGI (CCRF-CEM leukemia): > 100 µM
TGI (COLO 205 colon): 41.1 µM
TGI (DLD-1 colon): > 100 µM
TGI (DMS 114 small cell lung): > 100 µM
TGI (EKVX NSCLC): > 100 µM
TGI (HCC-2998 colon): 35.7 µM
TGI (HL-60(TB) leukemia): > 100 µM
TGI (HOP-62 NSCLC): 49 µM
TGI (HOP-92 NSCLC): > 100 µM
TGI (HT29 colon): > 100 µM
TGI (IGROV1 ovarian): > 100 µM
TGI (K-562 leukemia): > 100 µM
TGI (KM12 colon): > 100 µM
TGI (KM20L2 colon): 98.9 µM
TGI (LOX IMVI melanoma): > 100 µM
TGI (LXFL 529 NSCLC): > 100 µM
TGI (M14 melanoma): > 100 µM
TGI (M19-MEL melanoma): > 100 µM
TGI (MALME-3M melanoma): > 100 µM
TGI (MOLT-4 leukemia): > 100 µM
TGI (NCI-H226 lung): > 100 µM
TGI (NCI-H23 lung): > 100 µM
TGI (NCI-H460 lung): > 100 µM
TGI (NCI-H522 lung): 23.6 µM
TGI (OVCAR-3 ovarian): > 100 µM
TGI (OVCAR-4 ovarian): > 100 µM
TGI (OVCAR-5 ovarian): > 100 µM
TGI (OVCAR-8 ovarian): > 100 µM
TGI (RPMI-8226 leukemia): > 100 µM
TGI (RXF 393 renal): > 100 µM
TGI (SF-268 CNS): > 100 µM
TGI (SF-295 CNS): 71.5 µM
TGI (SF-539 CNS): > 100 µM
TGI (SK-MEL-2 melanoma): 58.6 µM
TGI (SK-MEL-28 melanoma): > 100 µM
TGI (SK-MEL-5 melanoma): > 100 µM
TGI (SK-OV-3 ovarian): 67.5 µM
TGI (SN12C renal): > 100 µM
TGI (SNB-19 CNS): > 100 µM
TGI (SNB-75 CNS): 65.6 µM
TGI (SNB-78 CNS): > 100 µM
TGI (SW-620 colon): > 100 µM
TGI (TK-10 renal): > 100 µM
TGI (U251 CNS): > 100 µM
TGI (UACC-257 melanoma): > 100 µM
TGI (UO-31 renal): > 100 µM
TGI (XF 498 CNS): 43.5 µM
